Data as given in patent US20100041089A1, “IMPROVED METHOD FOR DETECTING CHEMICAL […]” (priority 2006, published 2010).

System: yeast genes (expressed mRNA)
Assay: DNA chip measurement of expressed mRNA of yeast genes after culture with a toxic chemical substance
Type: cell-based, Saccharomyces cerevisiae S288C
Details: for level of expressed mRNA in the presence of chemical substance / level in the absence of chemical substance: cultured two hours with the chemical substance; for The level of expressed mRNA in the presence of chemical substance/The level of expressed mRNA in the absence of chemical substance: cultured two hours with substance
How it was run: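 Fluorescence ratio, treated over untreated, read by chip scanner; ratio of two or more counted significant. Cells: S288C yeast, YPD, 25° C, chemical added at log phase for 2 h at growth-inhibiting, sublethal level. Cy3/Cy5-labeled cDNA from oligo-dT-purified mRNA.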

Substance: Manganese ethylenebis(dithiocarbamate) [(8)]
- The level of expressed mRNA in the presence of chemical substance/The level of expressed mRNA in the absence of chemical substance, yeast gene YBR036C (gene YBR036C, Metabolism protein genes, DNA chip fluorescence ratio): 0.7
- The level of expressed mRNA in the presence of chemical substance/The level of expressed mRNA in the absence of chemical substance, yeast gene YBR298C (gene YBR298C, Metabolism protein genes, DNA chip fluorescence ratio): 0.5
- The level of expressed mRNA in the presence of chemical substance/The level of expressed mRNA in the absence of chemical substance, yeast gene YDL067C (gene YDL067C (mitochondria-located protein gene), yeast cultured two hours with chemical substance, DNA chip fluorescence ratio to control): 1.1
- The level of expressed mRNA in the presence of chemical substance/The level of expressed mRNA in the absence of chemical substance, yeast gene YDL078C (gene YDL078C, Metabolism protein genes, DNA chip fluorescence ratio): 1.0
- The level of expressed mRNA in the presence of chemical substance/The level of expressed mRNA in the absence of chemical substance, yeast gene YDL215C (gene YDL215C, Metabolism protein genes, DNA chip fluorescence ratio): 1.1
- The level of expressed mRNA in the presence of chemical substance/The level of expressed mRNA in the absence of chemical substance, yeast gene YDR079W (gene YDR079W (mitochondria-located protein gene), yeast cultured two hours with chemical substance, DNA chip fluorescence ratio to control): 2.6
- The level of expressed mRNA in the presence of chemical substance/The level of expressed mRNA in the absence of chemical substance, yeast gene YDR297W (gene YDR297W, Metabolism protein genes, DNA chip fluorescence ratio): 1.5
- The level of expressed mRNA in the presence of chemical substance/The level of expressed mRNA in the absence of chemical substance, yeast gene YDR387C (gene YDR387C, Metabolism protein genes, DNA chip fluorescence ratio): 0.7
- The level of expressed mRNA in the presence of chemical substance/The level of expressed mRNA in the absence of chemical substance, yeast gene YGL035C (gene YGL035C, Metabolism protein genes, DNA chip fluorescence ratio): 1.3
- The level of expressed mRNA in the presence of chemical substance/The level of expressed mRNA in the absence of chemical substance, yeast gene YGR062C (gene YGR062C (mitochondria-located protein gene), yeast cultured two hours with chemical substance, DNA chip fluorescence ratio to control): 0.8
- The level of expressed mRNA in the presence of chemical substance/The level of expressed mRNA in the absence of chemical substance, yeast gene YGR287C (gene YGR287C, Metabolism protein genes, DNA chip fluorescence ratio): 1.3
- The level of expressed mRNA in the presence of chemical substance/The level of expressed mRNA in the absence of chemical substance, yeast gene YJL070C (gene YJL070C, Metabolism protein genes, DNA chip fluorescence ratio): 1.1
- The level of expressed mRNA in the presence of chemical substance/The level of expressed mRNA in the absence of chemical substance, yeast gene YJL096W (gene YJL096W (mitochondria-located protein gene), yeast cultured two hours with chemical substance, DNA chip fluorescence ratio to control): 1.3
- The level of expressed mRNA in the presence of chemical substance/The level of expressed mRNA in the absence of chemical substance, yeast gene YJL180C (gene YJL180C (mitochondria-located protein gene), yeast cultured two hours with chemical substance, DNA chip fluorescence ratio to control): 1.0
- The level of expressed mRNA in the presence of chemical substance/The level of expressed mRNA in the absence of chemical substance, yeast gene YKR009C (gene YKR009C, Metabolism protein genes, DNA chip fluorescence ratio): 0.9
- The level of expressed mRNA in the presence of chemical substance/The level of expressed mRNA in the absence of chemical substance, yeast gene YLR295C (gene YLR295C (mitochondria-located protein gene), yeast cultured two hours with chemical substance, DNA chip fluorescence ratio to control): 1.2
- The level of expressed mRNA in the presence of chemical substance/The level of expressed mRNA in the absence of chemical substance, yeast gene YLR351C (gene YLR351C, Metabolism protein genes, DNA chip fluorescence ratio): 1.2
- The level of expressed mRNA in the presence of chemical substance/The level of expressed mRNA in the absence of chemical substance, yeast gene YLR375W (gene YLR375W, Metabolism protein genes, DNA chip fluorescence ratio): 1.0
- The level of expressed mRNA in the presence of chemical substance/The level of expressed mRNA in the absence of chemical substance, yeast gene YMR023C (gene YMR023C (mitochondria-located protein gene), yeast cultured two hours with chemical substance, DNA chip fluorescence ratio to control): 1.4
- The level of expressed mRNA in the presence of chemical substance/The level of expressed mRNA in the absence of chemical substance, yeast gene YMR267W (gene YMR267W (mitochondria-located protein gene), yeast cultured two hours with chemical substance, DNA chip fluorescence ratio to control): 1.5
- The level of expressed mRNA in the presence of chemical substance/The level of expressed mRNA in the absence of chemical substance, yeast gene YMR267W (gene YMR267W, Metabolism protein genes, DNA chip fluorescence ratio): 1.5
- The level of expressed mRNA in the presence of chemical substance/The level of expressed mRNA in the absence of chemical substance, yeast gene YMR278W (gene YMR278W, Metabolism protein genes, DNA chip fluorescence ratio): 1.1
- The level of expressed mRNA in the presence of chemical substance/The level of expressed mRNA in the absence of chemical substance, yeast gene YMR293C (gene YMR293C, Metabolism protein genes, DNA chip fluorescence ratio): 1.0
- The level of expressed mRNA in the presence of chemical substance/The level of expressed mRNA in the absence of chemical substance, yeast gene YNL073W (gene YNL073W (mitochondria-located protein gene), yeast cultured two hours with chemical substance, DNA chip fluorescence ratio to control): 1.0
- The level of expressed mRNA in the presence of chemical substance/The level of expressed mRNA in the absence of chemical substance, yeast gene YNR072W (gene YNR072W, Metabolism protein genes, DNA chip fluorescence ratio): 0.9
- The level of expressed mRNA in the presence of chemical substance/The level of expressed mRNA in the absence of chemical substance, yeast gene YOL096C (gene YOL096C, Metabolism protein genes, DNA chip fluorescence ratio): 1.0
- The level of expressed mRNA in the presence of chemical substance/The level of expressed mRNA in the absence of chemical substance, yeast gene YOR180C (gene YOR180C, Metabolism protein genes, DNA chip fluorescence ratio): 0.9
- The level of expressed mRNA in the presence of chemical substance/The level of expressed mRNA in the absence of chemical substance, yeast gene YOR316C (gene YOR316C (mitochondria-located protein gene), yeast cultured two hours with chemical substance, DNA chip fluorescence ratio to control): 0.8
- The level of expressed mRNA in the presence of chemical substance/The level of expressed mRNA in the absence of chemical substance, yeast gene YOR363C (gene YOR363C, Metabolism protein genes, DNA chip fluorescence ratio): 1.1
- The level of expressed mRNA in the presence of chemical substance/The level of expressed mRNA in the absence of chemical substance, yeast gene YPL040C (gene YPL040C (mitochondria-located protein gene), yeast cultured two hours with chemical substance, DNA chip fluorescence ratio to control): 1.1
- The level of expressed mRNA in the presence of chemical substance/The level of expressed mRNA in the absence of chemical substance, yeast gene YPL134C (gene YPL134C (mitochondria-located protein gene), yeast cultured two hours with chemical substance, DNA chip fluorescence ratio to control): 1.3
- The level of expressed mRNA in the presence of chemical substance/The level of expressed mRNA in the absence of chemical substance, yeast gene YPR184W (gene YPR184W, Metabolism protein genes, DNA chip fluorescence ratio): 0.7
- level of expressed mRNA in the presence of chemical substance / level in the absence of chemical substance (yeast gene YAL018C): 1.6
- The level of expressed mRNA in the presence of chemical substance/The level of expressed mRNA in the absence of chemical substance (yeast gene YAL053W): 0.8
- level of expressed mRNA in the presence of chemical substance / level in the absence of chemical substance (yeast gene YAR047C): 0.8
- level of expressed mRNA in the presence of chemical substance / level in the absence of chemical substance (yeast gene YAR064W): 1.1
- level of expressed mRNA in the presence of chemical substance / level in the absence of chemical substance (yeast gene YBL044W): 0.7
- The level of expressed mRNA in the presence of chemical substance/The level of expressed mRNA in the absence of chemical substance (yeast gene YBL048W): 1.2
- The level of expressed mRNA in the presence of chemical substance/The level of expressed mRNA in the absence of chemical substance (yeast gene YBL107C): 1.9
- level of expressed mRNA in the presence of chemical substance / level in the absence of chemical substance (yeast gene YBR012C): 1.1
- level of expressed mRNA in the presence of chemical substance / level in the absence of chemical substance (yeast gene YBR066C): 1.2
- level of expressed mRNA in the presence of chemical substance / level in the absence of chemical substance (yeast gene YBR124W): 1.2
- level of expressed mRNA in the presence of chemical substance / level in the absence of chemical substance (yeast gene YBR162C): 0.8
- level of expressed mRNA in the presence of chemical substance / level in the absence of chemical substance (yeast gene YBR287W): 1.0
- level of expressed mRNA in the presence of chemical substance / level in the absence of chemical substance (yeast gene YCL042W): 0.6
- level of expressed mRNA in the presence of chemical substance / level in the absence of chemical substance (yeast gene YCL056C): 1.0
- level of expressed mRNA in the presence of chemical substance / level in the absence of chemical substance (yeast gene YCR007C): 1.0
- level of expressed mRNA in the presence of chemical substance / level in the absence of chemical substance (yeast gene YDL046W): 0.7
- The level of expressed mRNA in the presence of chemical substance/The level of expressed mRNA in the absence of chemical substance (yeast gene YDL072C): 0.8
- The level of expressed mRNA in the presence of chemical substance/The level of expressed mRNA in the absence of chemical substance (yeast gene YDL204W): 1.1
- The level of expressed mRNA in the presence of chemical substance/The level of expressed mRNA in the absence of chemical substance (yeast gene YDL222C): 0.7
- level of expressed mRNA in the presence of chemical substance / level in the absence of chemical substance (yeast gene YDR090C): 0.8
